Several values for one entry are separate records, joined by “and”; a condition that tells them apart may be missing. Identical values can stand only once.
Test system: 323965-272-R-J2-PDC complex spheroid viability
Assay: Anticancer human tumor 323965-272-R-J2-PDC patient-derived pancreatic carcinoma cell line growth inhibition [CLK]
Conditions: for viability, T/C: stronger effect = lower value; active = viability on the fitted dose curve at most 10% of control; inactive = the rest
From the text: A high-throughput screen of multi-cell type tumor spheroids was designed to identify active combinations of […] and targeted small molecules. Complex spheroids include a stromal component modeled by human endothelial cells (HUVEC) and fibroblasts modeled by human mesenchymal stem cells (MSCs). The concentration ranges selected for each drug and investigational agent were based upon clinically achievable concentrations if the clinical Cmax of the agent was known.
Compounds. The drugs and investigational agents: cirtuvivint (SM08502; NSC835563), CC-671 (NSC850746), vemurafenib (NSC761431), tapotoclax (NSC804041), sotorasib (NSC818433), adagrasib (NSC831453), MRTX-1133 (NSC836407), BAY2416964 (NSC825713), copanlisib (NSC816437), inavolisib (NSC800729), abemaciclib (NSC768073), osimertinib (NSC779217), entinostat (NSC756642), eltanexor (KPT-8602, NSC794443), venetoclax (NSC766270), ceralasertib (NSC777638), bortezomib (NSC756655), olaparib (NSC753686), talazoparib (NSC767125), alisertib (NSC759677), peposertib (NSC802822), gemcitabine (NSC613327), 5-fluorouracil (NSC19893), SN-38 (NSC673596), oxaliplatin (NSC266046), paclitaxel (NSC125973), and doxorubicin (NSC123127), were obtained from the National Cancer Institute (NCI) Developmental Therapeutics Program Chemical Repository. The FDA-approved anticancer drug set is available from the Developmental Therapeutics Program at https://dtp.cancer.gov/organization/dscb/obtaining/available plates.htm. […] The stock solutions were prepared in dimethyl sulfoxide (DMSO, Sigma-Aldrich, St. Louis, MO, cat. D2650), except for the platinum complexes which were prepared in saline (Quality Biological, Gaithersburg, MD, cat. 114-055-101), at 800-fold the tested concentration and stored at -70 degrees C prior to their use. All drugs and investigational agents were tested over a range starting from a high concentration at or near the clinical Cmax and decreasing in half-log increments. If the clinical Cmax for an agent had not been determined, the highest concentration tested was 10 microM.
Cell Culture. All cells were maintained in an incubator at 37 degrees C and 5% CO2 with 95% humidity. The PDC lines were cultured according to standard operating procedures established by the NCI PDMR. Briefly, all PDCs were thawed and cultured in Matrigel-coated flasks prepared with a working solution of 1X Ham's F-12 nutrient mix, without supplementation (Invitrogen, Waltham, MA, cat. 11765054), 100 U/mL penicillin-streptomycin (Invitrogen, cat. 15140122), and 2.5% Matrigel (Corning Inc., Corning, NY, cat. 354248) for the first three passages. The 947758-054-R-J2-PDC line was cultured in 6B/Colon 1A media, which includes advanced DMEM/F-12 (Thermo Fisher Scientific, cat. 12634028), 10 mM HEPES (Thermo Fisher Scientific, cat. 15630080), 1X GlutaMAX supplement (Thermo Fisher Scientific, cat. 35050061), 0.1 mg/mL primocin (InvivoGen, cat. ant-pm-2), 10% defined fetal bovine serum, heat inactivated (HyClone Laboratories Inc., cat. SH30070.03HI), 1.25 mM N-Acetyl-L-cysteine (Sigma-Aldrich, cat. A9165), 10 mM nicotinamide (Sigma-Aldrich, cat. N0636), 1X B-27 supplement (Thermo Fisher Scientific, cat. 17504044), 1X N-2 supplement (Thermo Fisher Scientific, cat. 17502048), and 10 microM Y-27632 dihydrochloride (Tocris Bioscience, cat. 1254). The 876862-298-R-J1-PDC was cultured in 6E media, which includes all 6B/Colon 1A media components plus 50% L-WRN conditioned media (ATCC, cat. CRL-3276), 50 ng/mL recombinant human EGF recombinant protein (hEGF; Thermo Fisher Scientific, cat. PHG0311), 10 ng/mL recombinant human fibroblast growth factor 10 (hGFG-10; PeproTech, cat. 100-26), 1 ng/mL recombinant human fibroblast growth factor 2 (hFGF-2; PeproTech, cat. 100-18B), and 1 µM prostaglandin E2 (PGE2; Tocris, cat. 2296). The 227483-062-R1-J1-PDC line was cultured in Panc media, containing all 6E components except hFGF-2, with the addition of 500 nM SB-431542 (Selleckchem, cat. S1067) and 10 nM gastrin (Tocris, cat. 3006). […]

[1] = curve of first compound, second compound 0.0316 µM
[2] = curve of first compound, second compound 0.1 µM
[3] = curve of first compound, second compound 0.316 µM
[4] = curve of first compound, second compound 1 µM
[5] = curve of first compound, second compound 3.16 µM
[6] = curve of first compound, second compound 10 µM
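Note: spheroids exposed to agents for seven days before readout.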
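Throughout, for viability, T/C: percent of DMSO vehicle control wells so 100% = untreated growth.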

NC(=O)C(=Cn1cnc(-c2cc(C(F)(F)F)cc(C(F)(F)F)c2)n1)c1cncnc1 + CNC(=O)c1ccc(Nc2nc(OC3CCCC3)c3c(-c4ccc5nc(C)oc5c4)c[nH]c3n2)c(OC)c1
1270 nM: IC50 [2]
< 9.49 nM: IC50 [5] | IC50 [6]
inactive: viability, T/C (second compound 0.0316 µM, first compound 0.00949 µM) 112% | viability, T/C (second compound 0.0316 µM, first compound 0.03 µM) 88.8% | viability, T/C (second compound 0.0316 µM, first compound 0.0949 µM) 75.1% | viability, T/C (second compound 0.0316 µM, first compound 0.3 µM) 66.7% | viability, T/C (second compound 0.0316 µM, first compound 0.949 µM) 62.1% | viability, T/C (second compound 0.0316 µM, first compound 3 µM) 30.9% | viability, T/C (second compound 0.1 µM, first compound 0.00949 µM) 86.6% | viability, T/C (second compound 0.1 µM, first compound 0.03 µM) 89% | viability, T/C (second compound 0.1 µM, first compound 0.0949 µM) 70.9% | viability, T/C (second compound 0.1 µM, first compound 0.3 µM) 68.6% | viability, T/C (second compound 0.1 µM, first compound 0.949 µM) 59.6% | viability, T/C (second compound 0.1 µM, first compound 3 µM) 32.5% | viability, T/C (second compound 0.316 µM, first compound 0.00949 µM) 65.8% | viability, T/C (second compound 0.316 µM, first compound 0.03 µM) 67.9% | viability, T/C (second compound 0.316 µM, first compound 0.0949 µM) 64.7% | viability, T/C (second compound 0.316 µM, first compound 0.3 µM) 59.9% | viability, T/C (second compound 0.316 µM, first compound 0.949 µM) 45.3% | viability, T/C (second compound 0.316 µM, first compound 3 µM) 25.5% | viability, T/C (second compound 1 µM, first compound 0.00949 µM) 50.9% | viability, T/C (second compound 1 µM, first compound 0.03 µM) 56.4% | viability, T/C (second compound 1 µM, first compound 0.0949 µM) 45.1% | viability, T/C (second compound 1 µM, first compound 0.3 µM) 42.8% | viability, T/C (second compound 1 µM, first compound 0.949 µM) 30.6% | viability, T/C (second compound 1 µM, first compound 3 µM) 13.1% | viability, T/C (second compound 3.16 µM, first compound 0.00949 µM) 46% | viability, T/C (second compound 3.16 µM, first compound 0.03 µM) 51.4% | viability, T/C (second compound 3.16 µM, first compound 0.0949 µM) 37.1% | viability, T/C (second compound 3.16 µM, first compound 0.3 µM) 38.9% | viability, T/C (second compound 3.16 µM, first compound 0.949 µM) 33% | viability, T/C (second compound 3.16 µM, first compound 3 µM) 16.6% | viability, T/C (second compound 10 µM, first compound 0.00949 µM) 45.1% | viability, T/C (second compound 10 µM, first compound 0.03 µM) 48.4% | viability, T/C (second compound 10 µM, first compound 0.0949 µM) 47.2% | viability, T/C (second compound 10 µM, first compound 0.3 µM) 39.8% | viability, T/C (second compound 10 µM, first compound 0.949 µM) 24.1%
655 nM: IC50 [3]
53.9 nM: IC50 [4]
1070 nM: IC50 [1]
active: viability, T/C (second compound 10 µM, first compound 3 µM) 9.32%

CCc1c2c(nc3ccc(O)cc13)-c1cc3c(c(=O)n1C2)COC(=O)[C@]3(O)CC + CNC(=O)c1ccc(Nc2nc(OC3CCCC3)c3c(-c4ccc5nc(C)oc5c4)c[nH]c3n2)c(OC)c1
< 3.16 nM: IC50 [4] | IC50 [5] | IC50 [6]
inactive: viability, T/C (second compound 0.0316 µM, first compound 0.00316 µM) 73.5% | viability, T/C (second compound 0.0316 µM, first compound 0.01 µM) 42.4% | viability, T/C (second compound 0.0316 µM, first compound 0.0316 µM) 33% | viability, T/C (second compound 0.0316 µM, first compound 0.1 µM) 30.2% | viability, T/C (second compound 0.0316 µM, first compound 0.316 µM) 24.4% | viability, T/C (second compound 0.0316 µM, first compound 1 µM) 23.4% | viability, T/C (second compound 0.1 µM, first compound 0.00316 µM) 61% | viability, T/C (second compound 0.1 µM, first compound 0.01 µM) 47.1% | viability, T/C (second compound 0.1 µM, first compound 0.0316 µM) 39% | viability, T/C (second compound 0.1 µM, first compound 0.1 µM) 29.9% | viability, T/C (second compound 0.1 µM, first compound 0.316 µM) 25% | viability, T/C (second compound 0.1 µM, first compound 1 µM) 24% | viability, T/C (second compound 0.316 µM, first compound 0.00316 µM) 54.1% | viability, T/C (second compound 0.316 µM, first compound 0.01 µM) 38.7% | viability, T/C (second compound 0.316 µM, first compound 0.0316 µM) 30% | viability, T/C (second compound 0.316 µM, first compound 0.1 µM) 27.9% | viability, T/C (second compound 0.316 µM, first compound 0.316 µM) 18.4% | viability, T/C (second compound 0.316 µM, first compound 1 µM) 16.8% | viability, T/C (second compound 1 µM, first compound 0.00316 µM) 34.8% | viability, T/C (second compound 1 µM, first compound 0.01 µM) 25.8% | viability, T/C (second compound 1 µM, first compound 0.0316 µM) 21.9% | viability, T/C (second compound 1 µM, first compound 0.1 µM) 16.6% | viability, T/C (second compound 1 µM, first compound 0.316 µM) 15.2% | viability, T/C (second compound 1 µM, first compound 1 µM) 10.9% | viability, T/C (second compound 3.16 µM, first compound 0.00316 µM) 30.9% | viability, T/C (second compound 3.16 µM, first compound 0.01 µM) 30.1% | viability, T/C (second compound 3.16 µM, first compound 0.0316 µM) 25.3% | viability, T/C (second compound 3.16 µM, first compound 0.1 µM) 14.3% | viability, T/C (second compound 3.16 µM, first compound 0.316 µM) 17% | viability, T/C (second compound 3.16 µM, first compound 1 µM) 11.9% | viability, T/C (second compound 10 µM, first compound 0.00316 µM) 30.5% | viability, T/C (second compound 10 µM, first compound 0.01 µM) 23.6% | viability, T/C (second compound 10 µM, first compound 0.0316 µM) 20.9% | viability, T/C (second compound 10 µM, first compound 0.1 µM) 16% | viability, T/C (second compound 10 µM, first compound 0.316 µM) 14.2%
4.18 nM: IC50 [3]
active: viability, T/C (second compound 10 µM, first compound 1 µM) 8.54%
8.14 nM: IC50 [2]
7.88 nM: IC50 [1]

C=CC(=O)Nc1cc(Nc2nccc(-c3cn(C)c4ccccc34)n2)c(OC)cc1N(C)CCN(C)C
inactive: viability, T/C (compound 0.000949 µM) 103% and 92.1% | viability, T/C (compound 0.003 µM) 80.7% and 91.7% | viability, T/C (compound 0.00949 µM) 97.6% and 86% | viability, T/C (compound 0.03 µM) 90.5% and 83.2% | viability, T/C (compound 0.0949 µM) 81.3% and 78.3% | viability, T/C (compound 0.3 µM) 87.5% and 75.6%
> 300 nM: IC50 (curve of compound)

— PubChem BioAssay AID2060619 (Molecular Pharmacology Branch, DTP, NCI, 2025)
